Results on five compounds are retold here after patent publication US6730659B2, “Antimicrobial peptides and methods of use thereof” (The Board of Regents of the University of Oklahoma, priority 1999, dated 2004).

The conditions of series [1]: U.S. Pat. Nos. 5,607,916 and 5,458,874; cited from earlier work.
For series [2], the system named is S. typhimurium LT2. Put plainly: survival of mice inoculated with live Salmonella typhimurium LT2. The format is in vivo, mice (female, Balb/c). The following applies: for rescue from lethal infection in words: oral and intraperitoneal routes; for survival rate: 100 μg. Here is the method: Mice (female, Balb/c, 6-8 weeks) were administered a dose of live S. typhimurium LT2 (8×10^8/mouse) via the oral route. Without treatment, this dose of live organisms led to the death of all animals between day 3 and 4 (i.e. LD100 at day 3 or 4). Following challenge with Salmonella, peptide 20-44 (0-150 μg/mouse) was administered via the intravenous; oral, and intraperitoneal routes. […] At day 6 post infection, 100% of animals given a dose of 125 μg of peptide 20-44 intravenously survived. 80% of mice given 50, 100 and 150 μg of peptide survived through to day 5. Data shown in FIG. 10 strongly indicate that peptide 20-44 may also be given via the oral route since 80% survival rates were obtained with 100 μg of peptide. This is evidence that the peptide is not destroyed by the acid environment and enzymes of the stomach and indicates an alternative route of administration to the intravenous route discussed in FIG. 9. The third route of administration of peptide 20-44 was the intraperitoneal route. This is often the method of choice in a veterinary situation.

Series [3] concerns S. typhimurium SH9178. As to the kind of experiment: in vitro bactericidal activity, S. typhimurium SH9178. Format: cell-based, Salmonella typhimurium. Here is the method: (§1) Methods used herein are those previously described in U.S. Pat. Nos. 5,607,916; 5,627,262; and 5,650,392.
(§2) Peptides 20-44, 20-44ser26 and 20-44ser42, were assayed for bactericidal activity using S. typhimurium SH9178 as the test organism. […] Peptide 20-44ser42 killed 97.8% of bacteria at 75 μM, and peptide 20-44ser26 killed 99.6% of bacteria at 75 μM. Importantly, at concentrations of only 12.5 μM, peptide 20-44ser26 killed 70.4% of organisms and peptide 20-44ser42 killed 66.6% of bacteria. We tested these peptides with the smooth, more virulent LT2 strain of S. typhimurium, (FIG. 3). […] Indeed, the two serine analogs, 20-44ser26 and 20-44ser42 were able to kill 73% and 65% of bacteria at 12.5 μM, the lowest concentration of peptide tested. These levels of mortality were very much greater than those obtained using peptide 20-44. Two other organisms, Staphylococcus aureus ATCC strain 25923 and Enterococcus faecalis (a clinical isolate), both of which are gram-positive organisms, were also tested against 20-44ser26 and 20-44ser42.

For series [4] the following is noted: intravenous infusion 3.0 mg/kg with E. coli LPS 250 μg/kg over 30 min; cited from earlier work.
Series [5] in a line: LPS binding in the in vitro limulus amebocyte lysate (LAL) assay. The settings on record: FIGS. 6-7. As to the method: We tested the ability of the peptide analogs of the present invention to bind LPS in the in vitro limulus amebocyte lysate (LAL) assay and compared them with the parent peptide, 20-44. […] Similarly, peptide 20-44ser42 was also capable of neutralizing the effect of monophosphoryl lipid A at concentrations greater than 500 μg/ml (FIG. 7).

Series [6] concerns Escherichia coli. The following applies: cited from earlier work.
The subject of series [7] is Enterococcus faecalis. The following applies: cited from earlier work.
For series [8], the system named is Staphylococcus aureus. The following applies: cited from earlier work.
The conditions of series [9]: cited from earlier work.
Series [10] has as its system Salmonella typhimurium. The following applies: cited from earlier work.
Series [11] relates to Pseudomonas aeruginosa. The settings on record: cited from earlier work.
Series [12] has as its system LT2 strain of S. typhimurium. Format: cell-based. The settings on record: 12.5 μM, lowest concentration tested, FIG. 3. Here is the method: as §1, §2
Series [13] is classed as physicochemical. From the text: In addition to the Increased potency of peptide 20-44ser42 and 20-44ser26, these two peptides have technical advantages over the parent peptide 20-44. The two new analogs are easier to synthesize and purify because the internal disulfide bonding between the two cysteine residues can no longer occur.
Setting [14] is: 75 μM (200 μg/ml), highest concentration tested, FIG. 2.

“Also recorded” adds a separate entry of the source. Like-named read-outs stand apart in the source and are kept apart here. Positions of bridges follow the written chain, without caps; N, C: chain ends. Residues, ends and D or L forms follow the SMILES beside them. No end group written: not given here. *: point of attachment. Acm = CC(=O)NC*

As to “20-44ACM: sequence of 20-44 with both cysteines permanently protected with an ACM (boc-cys-acetamidomethyl) side group; control peptide (NQGRHFC(Acm)GGALIHARFVMTAASC(Acm)FQ; listed as Homo Sapiens) [Peptide 20-44ACM]”, in [1], the “antibiotic / antimicrobial activity in words” value was “ineffective antibiotics”. Further, the “rescue from lethal infection in words” value in series [2] (intravenous) is listed as “succumbed to infection very rapidly; also recorded: no activity”.

For “20-44ser26/42: homologous to peptide 20-44, serines substituted for cysteines at positions 26 and 42 (NQGRHFSGGALIHARFVMTAASSFQ; listed as Homo Sapiens)”, the “antibiotic / antimicrobial activity in words” value in [1] is given as “ineffective antibiotics”.

Take `CC[C@H](C)[C@@H]1NC(=O)[C@H](CC(C)C)NC(=O)[C@H](C)NC(=O)CNC(=O)CNC(=O)[C@@H](NC(=O)[C@H](Cc2ccccc2)NC(=O)[C@H](Cc2c[nH]cn2)NC(=O)[C@H](CCCNC(=N)N)NC(=O)CNC(=O)[C@H](CCC(N)=O)NC(=O)[C@@H](N)CC(N)=O)CSSC[C@@H](C(=O)N[C@@H](Cc2ccccc2)C(=O)N[C@@H](CCC(N)=O)C(=O)O)NC(=O)[C@H](CO)NC(=O)[C@H](C)NC(=O)[C@H](C)NC(=O)[C@H]([C@@H](C)O)NC(=O)[C@H](CCSC)NC(=O)[C@H](C(C)C)NC(=O)[C@H](Cc2ccccc2)NC(=O)[C@H](CCCNC(=N)N)NC(=O)[C@H](C)NC(=O)[C@H](Cc2c[nH]cn2)NC1=O` [Peptide 20-44] (H-NQGRHFCGGALIHARFVMTAASCFQ-OH; disulfide 7-23; N-terminus and C-terminus assumed): the “bactericidal activity in words” value in [3] (FIG. 2) is on record as “significant antibiotic activity”. Besides, in series [4], the “effect on LPS-induced circulatory shock in words” value was “prevented LPS-induced hyperdynamic and hypodynamic circulatory shock”. For the same compound, the “binding of LPS / monophosphoryl lipid A in words” value in series [5] was “bound LPS”. Also, the “in vitro bactericidal activity in words” value in series [6], in series [10] and in series [11] was “strong in vitro bactericidal activity” throughout. Moreover, the activity in words entry in [7] and in series [8] was “active” throughout. The mice survived in series [2] (50, 100 and 150 μg (intravenous by context, FIG. 9), through to day 5) is 80%. Moreover, the survival rate in [2] (intraperitoneal, day 5 post infection, FIG. 11) worked out at 80%; in series [2] (intraperitoneal, day 6 post infection, FIG. 11), 60%; in series [2] (oral, FIG. 10), 80%. In series [2] (intravenous, 125 μg, day 6 post infection, FIG. 9), this compound gave an animals survived of 100%. In addition, in series [2] (intravenous), the “rescue from lethal infection in words” value is “can rescue animals from lethal infection”. The 7-day survival rate in series [9] (0.2 mg/kg intravenously after lethal dose of LPS) is 30%; in series [9] (1.0 mg/kg intravenously after lethal dose of LPS), 50%; in [9] (5.0 mg/kg intravenously after lethal dose of LPS), 80%. For the same compound, the “endotoxin-induced increase in circulating TNFα” value in series [9] (5.0 mg/kg, sensitized rats) was “significantly inhibited”.

For the compound “NQGRHFCGGALIHARFVMTAASSFQ [Peptide 20-44ser42]”, the bacteria killed was 66.6% in [3] (12.5 μM), 97.8% in series [3] (setting [14]) and 65% in series [12]. The “solubility compared with the 20-44 peptide” value in series [13] is given as “greater than the 20-44 peptide”.

On to “NQGRHFSGGALIHARFVMTAASCFQ [Peptide 20-44ser26]”, for which the bacteria killed in [3] (12.5 μM) is 70.4%; in series [3] (setting [14]) it was 99.6%; in series [12], 73%. Further, in series [13], the “solubility compared with the 20-44 peptide” value is on record as “greater than the 20-44 peptide”.
